Data as given in paper PMC5339874, “Fluorene-9-bisphenol is anti-oestrogenic and may cause adverse pregnancy outcomes in mice” (Nature Communications, 2017).

Experiment: Serum BHPF levels in mice after drinking-water exposure (GC–MS)
Assay type: in vivo
Conditions: for concentration at 10 days: female, CD-1, mouse, serum, oral, 124.35 ng l^−1 in drinking water
Text: In China, college students usually undergo a physical examination before graduation. The volunteers in this study were senior students who were undergoing a physical examination in Beijing. Fifty male and 50 female healthy volunteers (mean age, 23.5±1.2 years) who habitually used plastic water bottles were randomly recruited to participate in this study in June 2015, after appropriate ethical approval was received from the Human Ethics Committee of the Peking University Peoples' Hospital. Each participant provided informed consent and volunteered to give one 10-ml random sample of blood. Fasting blood was collected at Peking University Hospital Medical Center with vacutainer blood collection device (Chengwu Yongkang Medical Products Ltd., China) between 8 and 9 h. […] The blood was collected directly into plain 10-ml glass vacutainer tubes and spun down 30 min later for serum preparation. The serum samples were stored in glass tubes at −80 °C until analysis. The samples were fortified with 5 ng of surrogate standard BHPF-d7, and the pH was adjusted to 6.5 with ammonium acetate. β-Glucuronidase/arylsulfatase (20 μl; Sigma-Aldrich, St Louis, MO) was added to the samples, and they were incubated at 37 °C for 20 h to allow deglucuronidation. […]
Mice with a maximal difference in body weight of 1 g were selected for the experiments and randomly assigned to either the treatment or control groups. […] The BHPF levels in the cooled boiled waters from Bottle A, Bottle B and the stainless steel electric water heater were determined by GC–MS. No BHPF was detected in the cooled boiled water from the stainless steel electric water heater. […] The relative uterine weight was calculated to evaluate the anti-uterotrophic activity. […] The serum BHPF levels were analysed by GC–MS using the same method as that for human serum. The gene expressions of sprr2a and sprr2b in the uteri were determined by Q-RT-PCR.

In the case of `Oc1ccc(C2(c3ccc(O)cc3)c3ccccc3-c3ccccc32)cc1` [BHPF, 9,9-bis(4-hydroxyphenyl)-fluorene], the “serum BHPF” value (100 ng l^−1 BHPF group, 10 days) is reported as “no serum BHPF was detected”, the concentration at 10 days (serum BHPF level (mean), Bottle A group (124.35 ng l^−1 BHPF in water), after enzymatic hydrolysis) is reported as 1.21 ± 1.11 ng/mL and the concentration at 10 days (serum BHPF levels, range, Bottle A group) is reported as 0.36 to 2.7 ng/mL.
